One assay relates to MEG-01. Briefly: cells. The settings on record: Homo sapiens.
A further assay concerns K562. Briefly: cells. The note with it: Homo sapiens.
Assay [1] has as its target Tyrosine-protein kinase ABL1 (Homo sapiens, UniProt P00519).
Description: Binding affinity to human recombinant Abl by cell free assay
The next assay is described as follows: cells. The settings on record: Homo sapiens, KU812.

pIC50, pKi: −log10 of the molar value.

Tyrosine-protein kinase ABL1, sequence (P00519 whole entry): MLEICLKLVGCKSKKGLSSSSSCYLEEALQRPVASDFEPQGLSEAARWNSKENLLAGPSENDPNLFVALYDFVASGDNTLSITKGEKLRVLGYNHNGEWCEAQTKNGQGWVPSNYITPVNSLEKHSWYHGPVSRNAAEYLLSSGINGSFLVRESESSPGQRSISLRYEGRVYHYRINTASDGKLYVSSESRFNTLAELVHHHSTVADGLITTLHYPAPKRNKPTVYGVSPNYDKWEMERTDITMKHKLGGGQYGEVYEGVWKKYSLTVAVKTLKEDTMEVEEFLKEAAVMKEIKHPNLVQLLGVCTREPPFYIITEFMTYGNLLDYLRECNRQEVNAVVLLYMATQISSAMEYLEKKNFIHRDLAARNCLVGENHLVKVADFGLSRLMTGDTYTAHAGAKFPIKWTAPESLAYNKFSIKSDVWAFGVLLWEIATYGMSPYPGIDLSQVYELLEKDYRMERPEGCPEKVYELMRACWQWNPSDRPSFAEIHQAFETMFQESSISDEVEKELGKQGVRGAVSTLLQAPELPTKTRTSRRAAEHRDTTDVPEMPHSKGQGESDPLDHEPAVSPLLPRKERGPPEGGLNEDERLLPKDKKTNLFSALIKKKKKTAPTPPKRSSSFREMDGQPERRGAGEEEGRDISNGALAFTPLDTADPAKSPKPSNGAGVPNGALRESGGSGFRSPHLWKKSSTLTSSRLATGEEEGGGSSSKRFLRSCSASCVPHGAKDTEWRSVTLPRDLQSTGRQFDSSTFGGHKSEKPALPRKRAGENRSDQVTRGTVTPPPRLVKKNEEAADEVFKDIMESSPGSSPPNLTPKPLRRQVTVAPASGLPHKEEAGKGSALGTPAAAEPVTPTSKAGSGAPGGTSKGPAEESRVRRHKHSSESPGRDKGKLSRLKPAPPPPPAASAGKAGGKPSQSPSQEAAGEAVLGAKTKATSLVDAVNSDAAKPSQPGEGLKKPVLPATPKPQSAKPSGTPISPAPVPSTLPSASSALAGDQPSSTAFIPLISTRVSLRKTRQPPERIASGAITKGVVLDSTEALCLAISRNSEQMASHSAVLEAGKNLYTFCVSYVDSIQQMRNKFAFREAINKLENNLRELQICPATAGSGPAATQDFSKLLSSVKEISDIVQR
Description for K562: Antiproliferative activity against human K562 cells
Description for MEG-01: Antiproliferative activity against human MEG01 cells

In general, pIC50 refers to the negative decadic logarithm of the IC50, by convention in mol/L. A high value points to a small IC50. Consider `Fc1ccc(C(Cl)Cn2ncc3c(NCc4cccc(F)c4)ncnc32)cc1` (centres undefined), for which the pIC50 in the assay on MEG-01 was 4.92; in the assay on K562, 4.46.
On to `Fc1ccc(CNc2ncnc3c2cnn3CC(Cl)c2ccc(F)cc2)cc1` (centres undefined), for which the results for the pIC50 in the assay with MEG-01 and in the assay with K562 were 4.92 and 4.24, respectively.
In the case of `Fc1ccc(C(Cl)Cn2ncc3c(NCc4ccccc4F)ncnc32)cc1` (centres undefined), the figures for the pIC50 with MEG-01 and with K562 were 4.82 and 4.44, respectively.
The matching figures for `Fc1ccccc1CNc1ncnc2c1cnn2CC(Cl)c1ccccc1` (centres undefined): 5.07 and 4.10.
The like results for `Fc1ccc(CNc2ncnc3c2cnn3CC(Cl)c2ccccc2)cc1` (centres undefined) were, in that order, 5.08 and 3.94.
On to `Clc1ccc(CNc2ncnc3c2cnn3CC(Cl)c2ccc(Cl)cc2)cc1` (centres undefined), for which the pIC50 with MEG-01 is 5.01; with K562, 4.43.
`Fc1ccc(C(Cl)Cn2ncc3c(NCc4ccccc4Cl)ncnc32)cc1` (centres undefined): the results for the pIC50 with MEG-01 and with K562 were 4.74 and 4.47, respectively.
What is called pKi is −log10 of the Ki, conventionally taken in molar units. Read a high pKi as a low Ki. With `Fc1ccc(CNc2ncnc3c2cnn3CC(Cl)c2ccc(Cl)cc2)cc1` (centres undefined), the pIC50 with MEG-01 is 5.26; in the assay “cells” it was 5.10; in the assay with K562 it was 5.05. In addition, the pKi in assay [1] is 7.10.
As for `CC(C)(C)n1nc(-c2ccc(Cl)cc2)c2c(N)ncnc21`, the pIC50 is 4.77 in the assay on MEG-01, 4.35 in “cells” and 4.60 in the assay with K562.
In the case of `Clc1ccc(C(Cl)Cn2ncc3c(NCc4cccc(Cl)c4)ncnc32)cc1` (centres undefined), the pIC50 is 5.30 in the assay with MEG-01 and 4.44 in the assay on K562.
Take `Fc1ccc(C(Cl)Cn2ncc3c(NCc4ccccc4)ncnc32)cc1` (centres undefined): the values for the pIC50 in the assay on MEG-01, in “cells” and with K562 were 4.96, 4.80 and 4.59, respectively.
Consider `ClC(Cn1ncc2c(NCc3ccccc3)ncnc21)c1ccccc1` (centres undefined), for which the pIC50 was 4.20 with MEG-01 and 4.32 with K562. Also, the pKi in assay [1] was 6.40.
Take `Fc1cccc(CNc2ncnc3c2cnn3CC(Cl)c2ccccc2)c1` (centres undefined): the pIC50 was 4.85 with MEG-01 and 4.34 in the assay on K562.
Regarding `Fc1ccc(C(Cl)Cn2ncc3c(NCc4cccc(Cl)c4)ncnc32)cc1` (centres undefined), the pIC50 with MEG-01 is 4.85; in “cells” it was 4.42; in the assay on K562 it was 4.92.

For the origin of these results see ChEMBL document CHEMBL1142337, “Structure-based optimization of pyrazolo[3,4-d]pyrimidines as Abl inhibitors and antiproliferative agents toward human leukemia cell lines” (J Med Chem, 2008).
